What was measured:
Experiment in all cases: relative viability (nuclei count vs DMSO), 5 days (fraction); higher = more cells survive
[1] = compound: C/C(=N\NC(=S)N1CCC1)/C2=CC=CC=N2 + Cc1cc(Nc2cc(N3CCN(C)CC3)nc(Sc3ccc(NC(=O)C4CC4)cc3)n2)n[nH]1 [Tozasertib] (partner 0.1 µM)
Outline: (§1)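 Relative viability equals treated-well nuclei counts divided by vehicle-well nuclei counts. Counts came from 4× images of lung cancer cell lines grown in 1536-well plates for 5 days after pin-tool dosing on the day after seeding. Dosing used one drug alone or a fixed anchor-drug dose plus five library-drug doses (not always all listed) in √10 steps, and values are medians of duplicate plates.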

[2] = compound: C/C(=N\NC(=S)N1CCC1)/C2=CC=CC=N2 + COc1cc2c(Oc3ccc(NC(=O)C4(C(=O)Nc5ccc(F)cc5)CC4)cc3F)ccnc2cc1OCCCN1CCOCC1 [Foretinib] (partner 0.25 µM)
Outline: as §1

[3] = compound: C/C(=N\NC(=S)N1CCC1)/C2=CC=CC=N2 + NC(=O)Nc1cc(-c2cccc(F)c2)sc1C(=O)N[C@H]1CCCNC1 [AZD7762] (partner 0.2 µM)
Outline: as §1

[4] = compound: C/C(=N\NC(=S)N1CCC1)/C2=CC=CC=N2 + CCNC(=O)c1noc(-c2cc(C(C)C)c(O)cc2O)c1-c1ccc(CN2CCOCC2)cc1 [Luminespib] (partner 0.01 µM)
Outline: as §1

Cell Line	relative viability ([1]; first compound 0.05 µM)	relative viability ([1]; first compound 0.1581 µM)	relative viability ([1]; first compound 0.5 µM)	relative viability ([1]; first compound 1.581 µM)	relative viability ([1]; first compound 5 µM)	relative viability ([2]; first compound 0.05 µM)	relative viability ([2]; first compound 0.1581 µM)	relative viability ([2]; first compound 0.5 µM)	relative viability ([2]; first compound 1.581 µM)	relative viability ([2]; first compound 5 µM)	relative viability ([3]; first compound 0.05 µM)	relative viability ([3]; first compound 0.1581 µM)	relative viability ([3]; first compound 0.5 µM)	relative viability ([3]; first compound 1.581 µM)	relative viability ([3]; first compound 5 µM)	relative viability ([4]; first compound 0.05 µM)	relative viability ([4]; first compound 0.1581 µM)	relative viability ([4]; first compound 0.5 µM)	relative viability ([4]; first compound 1.581 µM)	relative viability ([4]; first compound 5 µM)
NCI-H838	0.148	0.143	0.137	0.133	0.129	0.259	0.255	0.216	0.217	0.18	0.579	0.684	0.653	0.616	0.637	0.111	0.15	0.132	0.125	0.14
NCI-H1355	0.186	0.169	0.17	0.172	0.163	0.282	0.378	0.22	0.197	0.162	0.168	0.17	0.135	0.146	0.155	0.176	0.179	0.192	0.167	0.173
NCI-H1395	0.389	0.347	0.359	0.34	0.328	0.381	0.368	0.369	0.351	0.349	0.287	0.326	0.402	0.35	0.406	0.305	0.338	0.332	0.349	0.337
NCI-H1437	0.144	0.138	0.157	0.133	0.102	0.242	0.261	0.229	0.192	0.162	0.353	0.278	0.243	0.239	0.176	0.238	0.215	0.216	0.18	0.14
NCI-H1651	0.136	0.114	0.108	0.0885	0.0771	0.136	0.142	0.127	0.0965	0.107	0.0886	0.101	0.0929	0.0496	0.0554	0.13	0.157	0.127	0.0971	0.138
NCI-H1666	0.35	0.33	0.301	0.3	0.305	0.439	0.365	0.345	0.348	0.331	0.304	0.398	0.352	0.3	0.331	0.386	0.391	0.347	0.311	0.287
NCI-H1734	0.135	0.15	0.152	0.116	0.121	0.166	0.162	0.203	0.129	0.102	0.124	0.128	0.139	0.0896	0.101	0.123	0.105	0.116	0.118	0.117
NCI-H1755	0.465	0.305	0.213	0.278	0.258	0.518	0.35	0.283	0.268	0.258	0.357	0.262	0.253	0.256	0.292	0.191	0.184	0.198	0.243	0.275

From the supplement of paper PMC10307832
